Measurements as given in patent US9006235B2, “Inhibitors of human immunodeficiency virus replication” (priority 2012, dated 2015).
Where two headings read alike, the source gives them in different places.

Tested on: recombinant NL-Rluc virus
Assay: Inhibition of HIV replication (NL-Rluc virus, luciferase readout in MT-2 cells)
Assay type: cell-based
Conditions: Human immunodeficiency virus 1, MT2, 120 h

Compound	EC50 (read-out: Activity) [nM]	EC50 [nM]	other results
Cc1nc2cc(NC(=O)c3cccc(C#N)c3)nn2c(-c2cc(F)c3c(c2C)CCCO3)c1[C@H](OC(C)(C)C)C(=O)O [Example 8, (2S)-2-tert-butoxy-2-(2-(3-cyanobenzamido)-7-(8-fluoro-5-methylchroman-6-yl)-5-methylpyrazolo[1,5-a]pyrimidin-6-yl)acetic acid]	100 to 1000	–	–
Cc1nc2cc(NC(=O)OCc3ccccc3)nn2c(-c2cc(F)c3c(c2C)CCCO3)c1[C@H](OC(C)(C)C)C(=O)O [Example 33, (2S)-2-(2-(((benzyloxy)carbonyl)amino)-7-(8-fluoro-5-methylchroman-6-yl)-5-methylpyrazolo[1,5-a]pyrimidin-6-yl)-2-(tert-butoxy)acetic acid]	< 100	60	–
Cc1nc2cc(NC(=O)Cc3ccc(Cl)c(Cl)c3)nn2c(-c2cc(F)c3c(c2C)CCCO3)c1[C@H](OC(C)(C)C)C(=O)O [Example 26, (2S)-2-tert-butoxy-2-(2-(2-(3,4-dichlorophenyl)acetamido)-7-(8-fluoro-5-methylchroman-6-yl)-5-methylpyrazolo[1,5-a]pyrimidin-6-yl)acetic acid]	< 100	–	–
Cc1nc2cc(NC(=O)c3ccc4c(c3)OC(F)(F)O4)nn2c(-c2cc(F)c3c(c2C)CCCO3)c1[C@H](OC(C)(C)C)C(=O)O [Example 22, (2S)-2-tert-butoxy-2-(2-(2,2-difluorobenzo[d][1,3]-dioxole-5-carboxamido)-7-(8-fluoro-5-methylchroman-6-yl)-5-methylpyrazolo[1,5-a]pyrimidin-6-yl)acetic acid]	100 to 1000	–	–
Cc1nc2cc(N3CCCCC3)nn2c(-c2cc(F)c3c(c2C)CCCO3)c1[C@H](OC(C)(C)C)C(=O)O [Example 50, (2S)-2-(tert-butoxy)-2-(7-(8-fluoro-5-methylchroman-6-yl)-5-methyl-2-(piperidin-1-yl)pyrazolo[1,5-a]pyrimidin-6-yl)acetic acid]	< 100	60	–
Cc1ccc(NC(=O)Nc2cc3nc(C)c([C@H](OC(C)(C)C)C(=O)O)c(-c4cc(F)c5c(c4C)CCCO5)n3n2)cc1 [Example 37, (2S)-2-(tert-butoxy)-2-(7-(8-fluoro-5-methylchroman-6-yl)-5-methyl-2-(3-(p-tolyl)ureido)pyrazolo[1,5-a]pyrimidin-6-yl)acetic acid]	< 100	–	–
Cc1nc2cc(N(CCC(C)(C)C)CCC(C)(C)C)nn2c(-c2cc(F)c3c(c2C)CCCO3)c1[C@H](OC(C)(C)C)C(=O)O [Example 46, (2S)-2-(2-(bis(3,3-dimethylbutyl)amino)-7-(8-fluoro-5-methylchroman-6-yl)-5-methylpyrazolo[1,5-a]pyrimidin-6-yl)-2-(tert-butoxy)acetic acid]	> 1000	2570	–
Cc1nc2cc(NC(=O)CCC3CCCCC3)nn2c(-c2cc(F)c3c(c2C)CCCO3)c1[C@H](OC(C)(C)C)C(=O)O [Example 28, (2S)-2-tert-butoxy-2-(2-(3-cyclohexylpropanamido)-7-(8-fluoro-5-methylchroman-6-yl)-5-methylpyrazolo[1,5-a]pyrimidin-6-yl)acetic acid]	< 100	–	–
Cc1nc2cc(NC(=O)COC3C[C@@H](C)CC[C@@H]3C(C)C)nn2c(-c2cc(F)c3c(c2C)CCCO3)c1[C@H](OC(C)(C)C)C(=O)O (stereo partly drawn) [Example 13, (2S)-2-tert-butoxy-2-(7-(8-fluoro-5-methylchroman-6-yl)-2-(2-((2R,5S)-2-isopropyl-5-methylcyclohexyloxy)acetamido)-5-methylpyrazolo[1,5-a]pyrimidin-6-yl)acetic acid]	< 100	–	–
Cc1nc2cc(NC(=O)Cc3ccccc3)nn2c(-c2cc(F)c3c(c2C)CCCO3)c1[C@H](OC(C)(C)C)C(=O)O [Example 4, (2S)-2-tert-butoxy-2-(7-(8-fluoro-5-methylchroman-6-yl)-5-methyl-2-(2-phenylacetamido)pyrazolo[1,5-a]pyrimidin-6-yl)acetic acid]	100 to 1000	120	–
Cc1nc2cc(NC(=O)CCC3CCCC3)nn2c(-c2cc(F)c3c(c2C)CCCO3)c1[C@H](OC(C)(C)C)C(=O)O [Example 2, (2S)-2-tert-butoxy-2-(2-(3-cyclopentylpropanamido)-7-(8-fluoro-5-methylchroman-6-yl)-5-methylpyrazolo[1,5-a]pyrimidin-6-yl)acetic acid]	< 100	–	–
Cc1nc2cc(NCc3ccccc3)nn2c(-c2cc(F)c3c(c2C)CCCO3)c1[C@H](OC(C)(C)C)C(=O)O [Example 38, (2S)-2-(2-(benzylamino)-7-(8-fluoro-5-methylchroman-6-yl)-5-methylpyrazolo[1,5-a]pyrimidin-6-yl)-2-(tert-butoxy)acetic acid]	100 to 1000	300	–
Cc1nc2cc(NC(=O)CC3CCCCC3)nn2c(-c2cc(F)c3c(c2C)CCCO3)c1[C@H](OC(C)(C)C)C(=O)O [Example 25, (2S)-2-tert-butoxy-2-(2-(2-cyclohexylacetamido)-7-(8-fluoro-5-methylchroman-6-yl)-5-methylpyrazolo[1,5-a]pyrimidin-6-yl)acetic acid]	< 100	–	–
Cc1nc2cc(NCCC(C)(C)C)nn2c(-c2cc(F)c3c(c2C)CCCO3)c1[C@H](OC(C)(C)C)C(=O)O [Example 45, (2S)-2-(tert-butoxy)-2-(2-((3,3-dimethylbutyl)amino)-7-(8-fluoro-5-methylchroman-6-yl)-5-methylpyrazolo[1,5-a]pyrimidin-6-yl)acetic acid]	< 100	–	–
Cc1ccc(OC(=O)Nc2cc3nc(C)c([C@H](OC(C)(C)C)C(=O)O)c(-c4cc(F)c5c(c4C)CCCO5)n3n2)cc1 [Example 32, (2S)-2-(tert-butoxy)-2-(7-(8-fluoro-5-methylchroman-6-yl)-5-methyl-2-(((p-tolyloxy)carbonyl)amino)pyrazolo[1,5-a]pyrimidin-6-yl)acetic acid]	–	–	EC50 (MT-2 cells infected with NL-RLuc virus, 5 days of incubation, luciferase, serum condition not specified, read-out: Activity): > 1000 nM; EC50 (MT-2 cells infected with NL-RLuc virus, 5 days of incubation, luciferase, serum condition not specified, read-out: EC50): 6410 nM
Cc1nc2cc(NC(=O)CCCc3ccccc3)nn2c(-c2cc(F)c3c(c2C)CCCO3)c1[C@H](OC(C)(C)C)C(=O)O [Example 12, (2S)-2-tert-butoxy-2-(7-(8-fluoro-5-methylchroman-6-yl)-5-methyl-2-(4-phenylbutanamido)pyrazolo[1,5-a]pyrimidin-6-yl)acetic acid]	< 100	50	–
Cc1nc2cc(NCCC(C)CC(C)(C)C)nn2c(-c2cc(F)c3c(c2C)CCCO3)c1[C@H](OC(C)(C)C)C(=O)O (stereo partly drawn) [Example 47, (2S)-2-(tert-butoxy)-2-(7-(8-fluoro-5-methylchroman-6-yl)-5-methyl-2-((3,5,5-trimethylhexyl)amino)pyrazolo[1,5-a]pyrimidin-6-yl)acetic acid]	< 100	–	–
Cc1nc2cc(NC(=O)CC3CCCC3)nn2c(-c2cc(F)c3c(c2C)CCCO3)c1[C@H](OC(C)(C)C)C(=O)O [Example 21, (2S)-2-tert-butoxy-2-(2-(2-cyclopentylacetamido)-7-(8-fluoro-5-methylchroman-6-yl)-5-methylpyrazolo[1,5-a]pyrimidin-6-yl)acetic acid]	< 100	–	–
Cc1nc2cc(NC(=O)c3ccc4c(c3)-c3ccccc3C4=O)nn2c(-c2cc(F)c3c(c2C)CCCO3)c1[C@H](OC(C)(C)C)C(=O)O [Example 18, (2S)-2-tert-butoxy-2-(7-(8-fluoro-5-methylchroman-6-yl)-5-methyl-2-(9-oxo-9H-fluorene-3-carboxamido)pyrazolo[1,5-a]pyrimidin-6-yl)acetic acid]	100 to 1000	–	–
Cc1nc2cc(NC(=O)c3cc(C(C)(C)C)nn3C)nn2c(-c2cc(F)c3c(c2C)CCCO3)c1[C@H](OC(C)(C)C)C(=O)O [Example 11, (2S)-2-tert-butoxy-2-(2-(3-tert-butyl-1-methyl-1H-pyrazole-5-carboxamido)-7-(8-fluoro-5-methylchroman-6-yl)-5-methylpyrazolo[1,5-a]pyrimidin-6-yl)acetic acid]	< 100	–	–
Cc1nc2cc(N(C)CCCC3CCCC3)nn2c(-c2cc(F)c3c(c2C)CCCO3)c1[C@H](OC(C)(C)C)C(=O)O [Example 52, (2S)-2-(tert-butoxy)-2-(2-((3-cyclopentylpropyl)(methyl)amino)-7-(8-fluoro-5-methylchroman-6-yl)-5-methylpyrazolo[1,5-a]pyrimidin-6-yl)acetic acid]	< 100	–	–
Cc1nc2cc(NC(=O)Cc3ccc(F)cc3)nn2c(-c2cc(F)c3c(c2C)CCCO3)c1[C@H](OC(C)(C)C)C(=O)O [Example 3, (2S)-2-tert-butoxy-2-(7-(8-fluoro-5-methylchroman-6-yl)-2-(2-(4-fluorophenyl)acetamido)-5-methylpyrazolo[1,5-a]pyrimidin-6-yl)acetic acid]	< 100	80	–
Cc1ccc(C(=O)Nc2cc3nc(C)c([C@H](OC(C)(C)C)C(=O)O)c(-c4cc(F)c5c(c4C)CCCO5)n3n2)cc1C [Example 10, (2S)-2-tert-butoxy-2-(2-(3,4-dimethylbenzamido)-7-(8-fluoro-5-methylchroman-6-yl)-5-methylpyrazolo[1,5-a]pyrimidin-6-yl)acetic acid]	< 100	–	–
Cc1nc2cc(NC(=O)OCC(C)(C)C)nn2c(-c2cc(F)c3c(c2C)CCCO3)c1[C@H](OC(C)(C)C)C(=O)O [Example 35, (2S)-2-(tert-butoxy)-2-(7-(8-fluoro-5-methylchroman-6-yl)-5-methyl-2-(((neopentyloxy)carbonyl)amino)pyrazolo[1,5-a]pyrimidin-6-yl)acetic acid]	< 100	–	–
Cc1nc2cc(N(CCC(C)C)CCC(C)C)nn2c(-c2cc(F)c3c(c2C)CCCO3)c1[C@H](OC(C)(C)C)C(=O)O [Example 44, (2S)-2-(tert-butoxy)-2-(2-(diisopentylamino)-7-(8-fluoro-5-methylchroman-6-yl)-5-methylpyrazolo[1,5-a]pyrimidin-6-yl)acetic acid]	> 1000	1600	–
CCOc1cccc(C(=O)Nc2cc3nc(C)c([C@H](OC(C)(C)C)C(=O)O)c(-c4cc(F)c5c(c4C)CCCO5)n3n2)c1 [Example 14, (2S)-2-tert-butoxy-2-(2-(3-ethoxybenzamido)-7-(8-fluoro-5-methylchroman-6-yl)-5-methylpyrazolo[1,5-a]pyrimidin-6-yl)acetic acid]	< 100	–	–
